Results taken from patent publication US7582681B2, “Synergistic mixtures of 1,2-alkane diols” (Symrise GmbH & Co. KG, priority 2002, dated 2009).

Legend:
Assay in all cases: Test for adequate preservation (European Pharmacopea), 1,2-diols and 1,2-diol mixtures in O/W emulsion
Assay type in all cases: cell-based
[1] = tested on: Aspergillus niger ATCC 16404; details: for germ count A. niger: 3% diol(s) in O/W emulsion; for reduction in the number of colony forming units (CFU) to the 0 value: Aspergillus niger, dosage of 3%, 28 days
Experimental: A test for adequate preservation was carried out in accordance with the European Pharmacopea. The test thus consists of the contamination of the formulation, if possible in its final ratio, with a prescribed inoculum of suitable microorganisms, storage of the inoculated formulation at a specific temperature, taking of samples from the vessel at specific intervals and determination of the number of microorganisms in the samples taken in this way. The preserving properties are adequate if, under the conditions of the test, there is a distinct reduction or optionally no increase in the germ count in the inoculated formulations after the prescribed times at the prescribed temperatures. Experimental details of the test procedure are described in the European Pharmacopea (ISBN 3-7692-2768-9; 2001 supplement to the 3rd Edition, page 421-422, chapter 5.1.3). The initial germ count (CFU/g; “0” value) was in the range of 240,000 to 300,000 in the various test series. For the tests for adequate preservation, (a) potentially synergistically active mixtures taken into account and (b), for comparison purposes, the corresponding unmixed 1,2-diols were incorporated in O/W emulsions. […] The variation in the total concentration of 1,2-diols or 1,2-diol mixtures in the O/W emulsions was compensated for by increasing or reducing the water content, so that otherwise identical formulations always comprised 100 parts by weight in total. […] The Kull equation enables the pure substances and the active compound mixtures prepared therefrom to be compared in respect of their antimicrobial activity. With this equation the so-called synergy index (SI), which is a measure for a synergistic activity, but also for a possible antagonistic activity, of a mixture having an antimicrobial action, is determined. A synergistic effect is evident if the SI value determined is less than 1. On the other hand, if an SI of precisely 1 is calculated, there is a pure additive effect of two substances having an antimicrobial action. In the case of an SI value greater than 1, on the other hand, there is a (frequently undesired) antagonistic effect.

[2] = tested on: Candida albicans ATCC 10231; details: 3% diol(s) in O/W emulsion
Experimental: (§1) A test for adequate preservation was carried out in accordance with the European Pharmacopea. The test thus consists of the contamination of the formulation, if possible in its final ratio, with a prescribed inoculum of suitable microorganisms, storage of the inoculated formulation at a specific temperature, taking of samples from the vessel at specific intervals and determination of the number of microorganisms in the samples taken in this way. The preserving properties are adequate if, under the conditions of the test, there is a distinct reduction or optionally no increase in the germ count in the inoculated formulations after the prescribed times at the prescribed temperatures. Experimental details of the test procedure are described in the European Pharmacopea (ISBN 3-7692-2768-9; 2001 supplement to the 3rd Edition, page 421-422, chapter 5.1.3). The initial germ count (CFU/g; “0” value) was in the range of 240,000 to 300,000 in the various test series. For the tests for adequate preservation, (a) potentially synergistically active mixtures taken into account and (b), for comparison purposes, the corresponding unmixed 1,2-diols were incorporated in O/W emulsions. […] The variation in the total concentration of 1,2-diols or 1,2-diol mixtures in the O/W emulsions was compensated for by increasing or reducing the water content, so that otherwise identical formulations always comprised 100 parts by weight in total.

[3] = tested on: Escherichia coli ATCC 8739; details: 3% diol(s) in O/W emulsion
Experimental: as §1

[4] = tested on: Staphylococcus aureus ATCC 6538; details: 3% diol(s) in O/W emulsion
Experimental: as §1

[5] = tested on: Pseudomonas aeruginosa ATCC 9027; details: 3% diol(s) in O/W emulsion
Experimental: as §1

Compound	germ count A. niger ([1]; 0′-count (initial germ count))	germ count A. niger ([1]; 24 h)	germ count A. niger ([1]; 48 h)	germ count A. niger ([1]; 4 d)	germ count A. niger ([1]; 7 d)	germ count A. niger ([1]; 14 d)	germ count A. niger ([1]; 28 d)	reduction in the number of colony forming units (CFU) to the 0 value [1]	germ count C. albicans ([2]; 0′-count (initial germ count))	germ count C. albicans ([2]; 24 h)	germ count C. albicans ([2]; 48 h)	germ count C. albicans ([2]; 4 d)	germ count C. albicans ([2]; 7 d)	germ count C. albicans ([2]; 14 d)	germ count C. albicans ([2]; 28 d)	germ count E. coli ([3]; 0′-count (initial germ count))	germ count E. coli ([3]; 24 h)	germ count E. coli ([3]; 48 h)	germ count E. coli ([3]; 4 d)	germ count E. coli ([3]; 7 d)	further results
CCCC(O)CO (centres unmarked) [PE3, 1,2-pentanediol]	260,000 CFU/ml	180,000 CFU/ml	180,000 CFU/ml	180,000 CFU/ml	140,000 CFU/ml	140,000 CFU/ml	100,000 CFU/ml	did not enable a reduction in the number of colony forming units (CFU) to the desired 0 value	250,000 CFU/ml	245,000 CFU/ml	73,000 CFU/ml	28,000 CFU/ml	23,000 CFU/ml	<100 CFU/ml	0 CFU/ml	300,000 CFU/ml	300,000 CFU/ml	145,000 CFU/ml	100,000 CFU/ml	40,000 CFU/ml	germ count E. coli ([3]; 14 d): 500 CFU/ml; germ count E. coli ([3]; 28 d): 0 CFU/ml; germ count Staph. aureus ([4]; 0′-count (initial germ count)): 240,000 CFU/ml; germ count Staph. aureus ([4]; 24 h): 100,000 CFU/ml; germ count Staph. aureus ([4]; 48 h): 12,000 CFU/ml; germ count Staph. aureus ([4]; 7 d): 0 CFU/ml; germ count Staph. aureus ([4]; 14 d): 0 CFU/ml; germ count Staph. aureus ([4]; 28 d): 0 CFU/ml; germ count Ps. aeruginosa ([5]; 0′-count (initial germ count)): 290,000 CFU/ml; germ count Ps. aeruginosa ([5]; 24 h): 145,000 CFU/ml; germ count Ps. aeruginosa ([5]; 48 h): 12,000 CFU/ml; germ count Ps. aeruginosa ([5]; 4 d): 0 CFU/ml; germ count Ps. aeruginosa ([5]; 7 d): 0 CFU/ml; germ count Ps. aeruginosa ([5]; 14 d): 0 CFU/ml; germ count Ps. aeruginosa ([5]; 28 d): 0 CFU/ml
CCCCCCCCC(O)CO (centres unmarked) [DE 3, 1,2-decanediol]	250,000 CFU/ml	73,000 CFU/ml	160,000 CFU/ml	100,000 CFU/ml	100,000 CFU/ml	73,000 CFU/ml	73,000 CFU/ml	did not enable a reduction in the number of colony forming units (CFU) to the desired 0 value	320,000 CFU/ml	3,500 CFU/ml	0 CFU/ml	0 CFU/ml	0 CFU/ml	0 CFU/ml	0 CFU/ml	350,00 CFU/ml	0 CFU/ml	0 CFU/ml	0 CFU/ml	0 CFU/ml	germ count E. coli ([3]; 14 d): 0 CFU/ml; germ count E. coli ([3]; 28 d): 0 CFU/ml; germ count Staph. aureus ([4]; 0′-count (initial germ count)): 350,000 CFU/ml; germ count Staph. aureus ([4]; 24 h): 3,200 CFU/ml; germ count Staph. aureus ([4]; 48 h): 0 CFU/ml; germ count Staph. aureus ([4]; 7 d): 0 CFU/ml; germ count Staph. aureus ([4]; 14 d): 0 CFU/ml; germ count Staph. aureus ([4]; 28 d): 0 CFU/ml; germ count Ps. aeruginosa ([5]; 0′-count (initial germ count)): 360,000 CFU/ml; germ count Ps. aeruginosa ([5]; 24 h): 2,600 CFU/ml; germ count Ps. aeruginosa ([5]; 7 d): 20.0 mill; germ count Ps. aeruginosa ([5]; 14 d): 15.0 mill; germ count Ps. aeruginosa ([5]; 28 d): 11.8 mill
